Common to all, as to test: R-SAT selectivity profile of 26HCH16D
Holding throughout (type): cell-based

The target in one assay is T1, alpha1a/D (Rattus norvegicus, UniProt P23944).
T1 construct: expressed in transfected cells; host or cells: NIH3T3, pSI vector
T1 sequence (P23944 1-561): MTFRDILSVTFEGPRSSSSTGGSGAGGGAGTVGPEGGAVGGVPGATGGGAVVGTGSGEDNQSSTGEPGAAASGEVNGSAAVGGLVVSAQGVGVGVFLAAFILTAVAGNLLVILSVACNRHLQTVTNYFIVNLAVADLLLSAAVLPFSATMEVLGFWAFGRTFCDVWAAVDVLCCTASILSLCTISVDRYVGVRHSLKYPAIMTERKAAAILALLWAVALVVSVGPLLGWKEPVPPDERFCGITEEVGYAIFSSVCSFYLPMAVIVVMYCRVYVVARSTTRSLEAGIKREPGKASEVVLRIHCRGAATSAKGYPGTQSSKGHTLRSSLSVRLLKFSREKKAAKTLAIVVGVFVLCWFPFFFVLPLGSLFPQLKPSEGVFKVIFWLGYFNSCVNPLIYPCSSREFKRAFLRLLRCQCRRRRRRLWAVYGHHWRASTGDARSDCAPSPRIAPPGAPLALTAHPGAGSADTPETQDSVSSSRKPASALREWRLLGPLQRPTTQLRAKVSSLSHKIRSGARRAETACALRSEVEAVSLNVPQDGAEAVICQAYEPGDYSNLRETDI
Particulars: 4 doses in duplicate (3, 30, 300, 3000 nM). Here is the method:
(§1) The functional receptor assay, Receptor Selection and Amplification Technology (R-SAT), was used (with minor modifications from that previously described U.S. Pat. No. 5,707,798) to screen compounds for efficacy at the 5-HT2A receptor. Briefly, NIH3T3 cells were grown in 96 well tissue culture plates to 70-80% confluence. Cells were transfected for 12-16 hours with plasmid DNAs using superfect (Qiagen Inc.) as per manufacture's protocols. R-SAT's were generally performed with 50 ng/well of receptor and 20 ng/well of Beta-galactosidase plasmid DNA. All receptor and G-protein constructs used were in the pSI mammalian expression vector (Promega Inc) as described in U.S. Pat. No. 5,707,798. The 5HT2A receptor gene was amplified by nested PCR from brain cDNA using the oligodeoxynucleotides based on the published sequence (see Saltzman et. al. Biochem. Biophys. Res. Comm. 181:1469-78 (1991)). Large-scale transfections, cells were transfected for 12-16 hours, then trypsinized and frozen in DMSO. Frozen cells were later thawed, plated at 10,000-40,000 cells per well of a 96 well plate that contained drug. With both methods, cells were then grown in a humidified atmosphere with 5% ambient CO2 for five days. Media was then removed from the plates and marker gene activity was measured by the addition of the beta-galactosidase substrate ONPG (in PBS with 5% NP-40). The resulting colorimetric reaction was measured in a spectrophotometric plate reader (Titertek Inc.) at […]. All data were analyzed using the computer program XLFit (IDBSm). Efficacy is the percent maximal repression compared to repression by a control compound (ritanserin in the case of 5HT2A). pIC50 is the negative of the log(IC50), where IC50 is the calculated concentration in Molar that produces 50% maximal repression.
(§2) R-SAT assays (as described in Example 42) were carried out with cells transfected with receptors (listed below) to determine the receptor selectivity profile for compound 26HCH16D. 5HT2A inverse agonist data (IC50 nM; % efficacy) were derived from detailed dose response curves (7 points in triplicate).

Another assay addresses T2, 5HT1A (Homo sapiens, UniProt P08908).
T2 construct: expressed in transfected cells; host or cells: NIH3T3, pSI vector
T2 sequence (P08908 1-422): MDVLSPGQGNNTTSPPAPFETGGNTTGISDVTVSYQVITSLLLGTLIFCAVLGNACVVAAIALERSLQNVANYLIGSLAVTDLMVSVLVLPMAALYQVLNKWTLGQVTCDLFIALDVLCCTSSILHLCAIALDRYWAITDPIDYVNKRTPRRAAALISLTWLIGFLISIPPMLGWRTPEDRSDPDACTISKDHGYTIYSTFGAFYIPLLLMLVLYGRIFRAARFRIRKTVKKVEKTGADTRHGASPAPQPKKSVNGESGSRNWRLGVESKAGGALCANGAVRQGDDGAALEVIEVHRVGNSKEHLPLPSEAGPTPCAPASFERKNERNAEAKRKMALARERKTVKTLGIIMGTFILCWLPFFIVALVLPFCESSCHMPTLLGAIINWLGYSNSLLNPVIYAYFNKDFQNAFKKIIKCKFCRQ
The note with it: 4 doses in duplicate (3, 30, 300, 3000 nM). As to the method: as §1, §2

A further assay has as its target T3, 5HT2B (Homo sapiens, UniProt P41595).
T3 construct: expressed in transfected cells; host or cells: NIH3T3, pSI vector
Particulars: Antagonist; 4 dose profiling. As to the method: as §1, §2

In a further assay the target is T4, 5HT2C (Homo sapiens, UniProt P28335).
T4 construct: expressed in transfected cells; host or cells: NIH3T3, pSI vector
T4 sequence (P28335 33-458): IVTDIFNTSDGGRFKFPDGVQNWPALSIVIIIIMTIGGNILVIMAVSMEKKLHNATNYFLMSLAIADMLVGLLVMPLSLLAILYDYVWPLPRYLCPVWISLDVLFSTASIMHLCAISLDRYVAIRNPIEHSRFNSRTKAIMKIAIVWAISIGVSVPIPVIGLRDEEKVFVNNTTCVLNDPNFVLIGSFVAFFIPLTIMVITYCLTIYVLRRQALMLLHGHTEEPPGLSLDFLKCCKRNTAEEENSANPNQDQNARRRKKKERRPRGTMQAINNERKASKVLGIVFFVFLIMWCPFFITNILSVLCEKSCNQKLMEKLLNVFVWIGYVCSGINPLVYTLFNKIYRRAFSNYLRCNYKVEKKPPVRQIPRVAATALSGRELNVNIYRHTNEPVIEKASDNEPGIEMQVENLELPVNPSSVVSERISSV
Particulars: Inverse Agonist; 4 dose profiling. Here is the method: as §1, §2

A further assay deals with T5, H1 (Homo sapiens, UniProt P35367).
T5 construct: expressed in transfected cells; host or cells: NIH3T3, pSI vector
Here is the method:
as §1, §2

Where a name gives a salt, the structure may show the parent alone.

T5 sequence (P35367 whole entry): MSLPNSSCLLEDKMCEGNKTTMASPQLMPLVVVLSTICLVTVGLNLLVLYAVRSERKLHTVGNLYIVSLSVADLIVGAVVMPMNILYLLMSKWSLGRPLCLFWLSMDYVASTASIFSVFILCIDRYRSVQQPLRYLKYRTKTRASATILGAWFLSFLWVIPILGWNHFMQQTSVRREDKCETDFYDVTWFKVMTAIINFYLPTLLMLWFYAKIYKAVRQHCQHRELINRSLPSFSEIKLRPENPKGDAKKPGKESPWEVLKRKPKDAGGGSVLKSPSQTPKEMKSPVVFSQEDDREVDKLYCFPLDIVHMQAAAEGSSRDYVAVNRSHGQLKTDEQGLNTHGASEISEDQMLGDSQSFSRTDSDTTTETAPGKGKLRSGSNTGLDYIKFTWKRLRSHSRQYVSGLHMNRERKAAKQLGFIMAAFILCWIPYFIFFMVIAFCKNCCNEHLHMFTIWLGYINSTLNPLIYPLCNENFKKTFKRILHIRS
T3 sequence (P41595 whole entry): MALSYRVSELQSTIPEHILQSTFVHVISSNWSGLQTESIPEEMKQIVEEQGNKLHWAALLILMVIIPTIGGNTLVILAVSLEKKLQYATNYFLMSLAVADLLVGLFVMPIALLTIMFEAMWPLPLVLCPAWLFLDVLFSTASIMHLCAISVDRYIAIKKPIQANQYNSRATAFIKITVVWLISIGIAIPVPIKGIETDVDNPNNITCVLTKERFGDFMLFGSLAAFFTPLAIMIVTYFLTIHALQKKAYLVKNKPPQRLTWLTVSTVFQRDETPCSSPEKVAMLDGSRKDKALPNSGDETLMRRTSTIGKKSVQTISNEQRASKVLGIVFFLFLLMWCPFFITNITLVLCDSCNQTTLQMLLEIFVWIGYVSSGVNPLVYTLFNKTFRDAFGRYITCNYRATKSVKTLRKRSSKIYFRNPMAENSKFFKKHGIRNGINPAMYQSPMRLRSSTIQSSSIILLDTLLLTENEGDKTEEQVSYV

Turning to `Cc1ccc(CN(C(=O)NCc2ccccc2)C2CCN(Cc3ccccc3)CC2)cc1` [Compound 26HCH16D, N-((4-Methylphenyl)methyl)-N-(1-(phenylmethyl)piperidin-4-yl)-N′-phenylmethylcarbamide hydrochloride], the Efficacy result on alpha1a/D (Agonist) is “nr (nr=activity less than 30% at all doses tested (3, 30, 300, 3000 nM), therefore EC50/IC50 greater than 3000 nM))”; on alpha1a/D (Antagonist), “nr (nr=activity less than 30% at all doses tested (3, 30, 300, 3000 nM), therefore EC50/IC50 greater than 3000 nM))”; on 5HT1A (Agonist) it was “nr (nr=activity less than 30% at all doses tested (3, 30, 300, 3000 nM), therefore EC50/IC50 greater than 3000 nM))”; at 5HT1A (Antagonist), “nr (nr=activity less than 30% at all doses tested (3, 30, 300, 3000 nM), therefore EC50/IC50 greater than 3000 nM))”; on H1 (Agonist, 4 doses in duplicate (3, 30, 300, 3000 nM)) it was “nr (nr=activity less than 30% at all doses tested (3, 30, 300, 3000 nM), therefore EC50/IC50 greater than 3000 nM))”. Also, the “initial concentration at which at least 30% efficacy observed” value on 5HT2B came out at 3000 nM; at 5HT2C, 3000 nM; on H1 (Antagonist, 4 dose profiling), 3000 nM.
